Results from patent publication US5278326A, “Substituted beta-ketoamide ACAT inhibitors” (Warner-Lambert Company, priority 1991, dated 1994).

What follows are compounds tested against T1, acyl-CoA: cholesterol acyltransferase (ACAT) (Oryctolagus cuniculus, UniProt G1SFD9) (assay: in vitro inhibition of ACAT (radiolabeled cholesterol oleate formed from radiolabeled oleic acid, rabbit intestinal microsomes)). Details: tissue preparation containing rabbit intestinal microsomes, read-out: IC50 (concentration of test compound required to inhibit the activity of the enzyme by 50%).
T1 construct: in a tissue preparation containing rabbit intestinal microsomes; from tissue; host or cells: rabbit intestinal microsomes
T1 sequence (G1SFD9 1-524): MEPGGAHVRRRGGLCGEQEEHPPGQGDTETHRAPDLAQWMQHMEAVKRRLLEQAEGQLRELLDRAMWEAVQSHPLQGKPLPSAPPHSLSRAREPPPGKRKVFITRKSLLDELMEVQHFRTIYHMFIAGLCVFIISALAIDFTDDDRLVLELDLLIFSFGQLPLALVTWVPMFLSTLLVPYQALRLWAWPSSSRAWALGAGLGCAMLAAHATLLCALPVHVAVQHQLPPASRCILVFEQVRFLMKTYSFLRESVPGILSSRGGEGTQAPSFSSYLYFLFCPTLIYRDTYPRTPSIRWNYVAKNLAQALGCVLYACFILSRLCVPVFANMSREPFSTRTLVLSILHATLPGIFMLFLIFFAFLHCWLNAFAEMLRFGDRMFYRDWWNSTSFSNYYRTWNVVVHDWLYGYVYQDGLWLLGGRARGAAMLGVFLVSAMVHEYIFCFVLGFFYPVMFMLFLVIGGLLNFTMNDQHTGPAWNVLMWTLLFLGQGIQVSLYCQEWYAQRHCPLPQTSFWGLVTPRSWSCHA
Type: biochemical
Procedure: The ability of representative compounds of the present invention to inhibit ACAT was measured using an in vitro test more fully described in F. J. Field and R. G. Salone, Biochemica et Biophysica 712:557-570 (1982). The test assesses the ability of a test compound to inhibit the acylation of cholesterol by oleic acid by measuring the amount of radiolabeled cholesterol oleate formed from radiolabeled oleic acid in a tissue preparation containing rabbit intestinal microsomes.
The data appear in Table 1 where they are expressed as IC50 values; i.e., the concentration of test compound required to inhibit the activity of the enzyme by 50%.

IC50 [nM]	Structure (SMILES)
> 1000	CCCCCCCCNC(=O)CC(=O)c1c2ccccc2cc2ccccc12 [Example 13, N-octyl-β-oxo-9-anthracenepropanamide]
> 1000	CCCCCCCCCCCC(=O)C(C)(C)C(=O)N(C)c1c(OC)cc(OC)cc1OC [Example 10, N,2,2-trimethyl-3-oxo-N-(2,4,6-trimethoxyphenyl)-tetradecanamide]
57	CC(C)c1cccc(C(C)C)c1NC(=O)CC(=O)CCCCCCCCCCCOC1CCCCO1 (centres unmarked) [Example 6, N-[2,6-bis(1-methylethyl)phenyl]-3-oxo-14-[(tetrahydro-2H-pyran-2-yl)oxy]-tetradecanamide]
> 1000	CCCCCCCCNC(=O)CC(=O)c1ccc(F)cc1F [Example 12, 2,4-difluoro-N-octyl-β-oxo-benzenepropanamide]
230	CC(C)c1cccc(C(C)C)c1NC(=O)CC(=O)CCCCCCCCCCCO [Example 7, N-[2,6-bis(1-methylethyl)phenyl]-14-hydroxy-3-oxo-tetradecanamide]
